The source made the active and inactive calls. The calls are words filed in the database; no cut-off is given here.
What was measured:
TGF-beta receptor type-1 [1] = biological target: T1, TGF-beta receptor type-1 (Homo sapiens, UniProt P36897); type: cell-based, HEK293
T1 sequence (P36897 whole entry): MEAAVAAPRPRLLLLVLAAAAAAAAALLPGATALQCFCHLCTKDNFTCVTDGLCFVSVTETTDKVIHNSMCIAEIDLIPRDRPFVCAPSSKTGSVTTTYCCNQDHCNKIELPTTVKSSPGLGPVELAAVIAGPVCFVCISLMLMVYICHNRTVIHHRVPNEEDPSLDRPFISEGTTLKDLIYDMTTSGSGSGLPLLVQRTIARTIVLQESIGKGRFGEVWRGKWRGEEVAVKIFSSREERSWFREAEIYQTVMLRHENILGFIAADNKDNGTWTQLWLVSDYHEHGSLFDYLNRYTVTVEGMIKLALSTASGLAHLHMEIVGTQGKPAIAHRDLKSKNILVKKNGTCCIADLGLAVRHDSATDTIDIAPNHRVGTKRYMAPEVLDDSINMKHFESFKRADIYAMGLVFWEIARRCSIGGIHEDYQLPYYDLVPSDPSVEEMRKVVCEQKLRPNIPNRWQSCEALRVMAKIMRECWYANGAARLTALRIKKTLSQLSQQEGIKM
Description: Inhibition of ALK5 (unknown origin) expressed in HEK293 cells transfected with CAGA-luciferase and Renilla luciferase reporter measured after 24 hrs by dual luciferase reporter assay

TGF-beta receptor type-1 [2] = biological target: T1, TGF-beta receptor type-1; type: single protein
Description: Inhibition of human ALK5 using casein as substrate in presence of 10 uM [gamma33P] ATP by radioactive assay

Activin receptor type-1 [3] = biological target: T2, Activin receptor type-1 (Homo sapiens, UniProt Q04771)
T2 sequence (Q04771 whole entry): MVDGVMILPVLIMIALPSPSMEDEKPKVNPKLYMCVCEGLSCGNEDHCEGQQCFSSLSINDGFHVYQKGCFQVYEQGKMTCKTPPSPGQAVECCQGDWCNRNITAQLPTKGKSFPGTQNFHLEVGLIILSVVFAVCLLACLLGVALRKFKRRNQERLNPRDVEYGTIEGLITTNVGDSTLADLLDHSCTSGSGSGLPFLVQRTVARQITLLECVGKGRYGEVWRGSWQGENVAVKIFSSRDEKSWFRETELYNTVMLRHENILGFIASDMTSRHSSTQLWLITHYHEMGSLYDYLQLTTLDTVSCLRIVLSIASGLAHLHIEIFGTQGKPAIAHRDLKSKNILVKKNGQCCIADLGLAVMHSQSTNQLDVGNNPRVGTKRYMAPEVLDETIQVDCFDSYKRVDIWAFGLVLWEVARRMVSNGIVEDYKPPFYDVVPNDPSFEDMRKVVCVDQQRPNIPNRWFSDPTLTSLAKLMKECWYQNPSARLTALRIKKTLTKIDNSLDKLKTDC
Description: Inhibition of human ALK2 using casein as substrate in presence of 10 uM [gamma33P] ATP by radioactive assay

Activin receptor type-1 [4] = biological target: T2, Activin receptor type-1; experiment: Inhibition of C-terminal nanoluciferase-fused ALK2 (unknown origin) expressed in HEK293 cells incubated for 2 hrs followed by NanoBRET NanoGlo Substrate addition by NanoBRET assay; type: cell-based
Activin receptor type-1 [5] = biological target: Activin receptor type-1 (Homo sapiens, UniProt Q04771, R258G); experiment: Inhibition of ALK2 R258G mutant (unknown origin)
Activin receptor type-1 [6] = biological target: Activin receptor type-1 (Homo sapiens, UniProt Q04771, R206H); experiment: Inhibition of human ALK2 R206H mutant using casein as substrate in presence of 10 uM [gamma33P] ATP by radioactive assay
Activin receptor type-1 [7] = biological target: Activin receptor type-1 (Homo sapiens, UniProt Q04771, G328V); experiment: Inhibition of ALK2 G328V mutant (unknown origin)
[8] = biological target: T3, Non-receptor tyrosine-protein kinase TNK1 (Homo sapiens) (UniProt Q13470); experiment: Inhibition of TNK1 (unknown origin) at 1 uM
T3 sequence (whole entry): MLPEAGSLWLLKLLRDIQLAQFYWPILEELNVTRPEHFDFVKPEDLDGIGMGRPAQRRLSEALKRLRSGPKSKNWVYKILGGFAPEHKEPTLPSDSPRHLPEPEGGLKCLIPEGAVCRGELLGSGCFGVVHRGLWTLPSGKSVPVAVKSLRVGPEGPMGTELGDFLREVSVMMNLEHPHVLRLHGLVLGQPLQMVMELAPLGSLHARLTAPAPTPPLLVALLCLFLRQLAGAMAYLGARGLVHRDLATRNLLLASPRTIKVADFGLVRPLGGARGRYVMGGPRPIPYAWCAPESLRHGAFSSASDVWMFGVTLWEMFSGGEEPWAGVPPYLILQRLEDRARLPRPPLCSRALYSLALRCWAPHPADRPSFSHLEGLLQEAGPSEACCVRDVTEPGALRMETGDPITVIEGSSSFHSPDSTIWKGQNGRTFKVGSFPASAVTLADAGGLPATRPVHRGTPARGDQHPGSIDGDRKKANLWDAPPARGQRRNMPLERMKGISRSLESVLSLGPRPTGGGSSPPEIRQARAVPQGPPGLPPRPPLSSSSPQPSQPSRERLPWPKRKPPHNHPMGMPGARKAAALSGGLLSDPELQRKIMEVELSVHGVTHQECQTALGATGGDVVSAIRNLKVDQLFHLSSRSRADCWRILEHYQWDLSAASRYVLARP

[9] = biological target: Activin receptor type-1-like (Homo sapiens) (UniProt P37023); experiment: Inhibition of ALK1 (unknown origin) at 1 uM
[10] = biological target: Bone morphogenetic protein receptor type-1B (Homo sapiens) (UniProt O00238); experiment: Inhibition of ALK6 (unknown origin) at 1 uM
[11] = biological target: T4, Serine/threonine-protein kinase A-Raf (Homo sapiens) (UniProt P10398); experiment: Inhibition of ARAF (unknown origin) at 1 uM
T4 sequence (whole entry): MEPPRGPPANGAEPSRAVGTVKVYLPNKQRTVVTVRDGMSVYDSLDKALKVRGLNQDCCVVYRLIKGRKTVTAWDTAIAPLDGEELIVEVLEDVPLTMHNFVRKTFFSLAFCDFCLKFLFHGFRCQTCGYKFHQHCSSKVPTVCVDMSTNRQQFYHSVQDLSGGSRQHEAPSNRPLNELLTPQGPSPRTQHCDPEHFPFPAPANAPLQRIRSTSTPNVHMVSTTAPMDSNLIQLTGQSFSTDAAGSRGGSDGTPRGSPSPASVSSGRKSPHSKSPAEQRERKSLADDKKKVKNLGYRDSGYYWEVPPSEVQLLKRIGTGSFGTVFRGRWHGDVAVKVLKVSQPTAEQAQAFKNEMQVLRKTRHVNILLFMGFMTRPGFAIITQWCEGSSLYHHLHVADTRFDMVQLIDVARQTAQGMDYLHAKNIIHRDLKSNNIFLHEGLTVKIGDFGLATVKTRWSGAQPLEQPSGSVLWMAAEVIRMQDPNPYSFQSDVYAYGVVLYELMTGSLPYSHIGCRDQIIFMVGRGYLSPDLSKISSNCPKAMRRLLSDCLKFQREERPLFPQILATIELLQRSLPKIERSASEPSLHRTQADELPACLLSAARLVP

[12] = biological target: Bone morphogenetic protein receptor type-1A (Homo sapiens) (UniProt P36894); experiment: Inhibition of ALK3 (unknown origin) at 1 uM
[13] = biological target: Mitogen-activated protein kinase kinase kinase kinase 4 (Homo sapiens) (UniProt O95819); experiment: Inhibition of MAP4K4 (unknown origin) at 1 uM
[14] = biological target: Misshapen-like kinase 1 (Homo sapiens) (UniProt Q8N4C8); experiment: Inhibition of MINK (unknown origin) at 1 uM
[15] = mouse, microsomes, 1 h, 1 µM
Description: Microsomal stability in CD-1 mouse liver microsomes assessed as parent compound remaining at 1 uM and 37 degree C measured after 60 mins in presence of NADP+ by LC-QTOF/MS analysis

[16] = mouse, in vivo, po, 10 mg/kg, 24 h
in vitro [17] = settings: human, Caco-2
Description: Apparent permeability across apical to basolateral membrane in human Caco2 cells at 5 uM incubated for 120 mins in orbital shaker by LC-QTOF/MS analysis

[18] = mouse, in vivo, po, 10 mg/kg, 24 h; remark: listed apart in the source
Description: Half life in CB17 SCID mouse at 10 mg/kg, po measured up to 24 hrs by LC-MS/MS analysis

[19] = human, microsomes, 1 h, 1 µM
Description: Microsomal stability in human liver microsomes assessed as parent compound remaining at 1 uM and 37 degree C measured after 60 mins in presence of NADP+ by LC-QTOF/MS analysis

in vitro [20] = settings: human, Caco-2; remark: listed apart in the source
Description: Apparent permeability across basolateral to apical membrane in human Caco2 cells at 5 uM incubated for 120 mins in orbital shaker by LC-QTOF/MS analysis

[21] = mouse, in vivo, po, 10 mg/kg, 24 h; remark: listed apart in the source
[22] = biological target: Voltage-gated inwardly rectifying potassium channel KCNH2 (Homo sapiens, UniProt Q12809)
Description: Inhibition of human ERG expressed in HEK293 cells measured after 5 mins by whole cell patch clamp method

Chain of Activin receptor type-1 (Homo sapiens, UniProt Q04771, R258G) (Q04771 21-509 R258G limits assumed): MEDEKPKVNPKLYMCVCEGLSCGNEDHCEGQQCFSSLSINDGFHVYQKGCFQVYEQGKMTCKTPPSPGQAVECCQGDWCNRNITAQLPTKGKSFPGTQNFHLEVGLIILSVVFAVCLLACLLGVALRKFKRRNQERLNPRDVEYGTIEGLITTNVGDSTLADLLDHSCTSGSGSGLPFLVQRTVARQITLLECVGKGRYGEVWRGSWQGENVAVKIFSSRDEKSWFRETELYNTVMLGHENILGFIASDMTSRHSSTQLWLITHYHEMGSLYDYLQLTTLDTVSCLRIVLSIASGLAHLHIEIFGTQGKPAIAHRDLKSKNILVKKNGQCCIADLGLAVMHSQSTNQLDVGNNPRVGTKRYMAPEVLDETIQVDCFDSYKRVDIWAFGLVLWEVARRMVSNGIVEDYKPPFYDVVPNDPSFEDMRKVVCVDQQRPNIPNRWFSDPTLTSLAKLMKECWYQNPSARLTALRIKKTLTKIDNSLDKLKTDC
Chain of Activin receptor type-1 (Homo sapiens, UniProt Q04771, G328V) (Q04771 21-509 G328V limits assumed): as the sequence (Q04771 21-509 R258G limits assumed) above, with G238R, G308V counted along it
Chain of Activin receptor type-1 (Homo sapiens, UniProt Q04771, R206H) (Q04771 21-509 R206H limits assumed): as the sequence (Q04771 21-509 R258G limits assumed) above, with R186H, G238R counted along it
Chain of Bone morphogenetic protein receptor type-1A (Homo sapiens) (P36894 whole entry): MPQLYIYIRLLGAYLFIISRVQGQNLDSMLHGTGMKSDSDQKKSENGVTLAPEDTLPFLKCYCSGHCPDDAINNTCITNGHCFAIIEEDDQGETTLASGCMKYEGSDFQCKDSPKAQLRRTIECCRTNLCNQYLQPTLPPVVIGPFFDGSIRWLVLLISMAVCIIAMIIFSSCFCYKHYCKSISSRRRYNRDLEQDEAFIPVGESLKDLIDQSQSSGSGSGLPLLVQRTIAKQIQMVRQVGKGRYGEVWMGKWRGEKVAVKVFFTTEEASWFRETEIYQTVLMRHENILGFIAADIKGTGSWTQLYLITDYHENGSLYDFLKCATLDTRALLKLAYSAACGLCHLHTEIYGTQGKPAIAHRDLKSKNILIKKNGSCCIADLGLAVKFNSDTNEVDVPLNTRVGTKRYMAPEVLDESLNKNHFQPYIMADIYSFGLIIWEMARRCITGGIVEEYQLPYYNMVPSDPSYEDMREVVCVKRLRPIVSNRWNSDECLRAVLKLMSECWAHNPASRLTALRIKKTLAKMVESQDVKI
Chain of Mitogen-activated protein kinase kinase kinase kinase 4 (Homo sapiens) (O95819 2-1239 limits assumed): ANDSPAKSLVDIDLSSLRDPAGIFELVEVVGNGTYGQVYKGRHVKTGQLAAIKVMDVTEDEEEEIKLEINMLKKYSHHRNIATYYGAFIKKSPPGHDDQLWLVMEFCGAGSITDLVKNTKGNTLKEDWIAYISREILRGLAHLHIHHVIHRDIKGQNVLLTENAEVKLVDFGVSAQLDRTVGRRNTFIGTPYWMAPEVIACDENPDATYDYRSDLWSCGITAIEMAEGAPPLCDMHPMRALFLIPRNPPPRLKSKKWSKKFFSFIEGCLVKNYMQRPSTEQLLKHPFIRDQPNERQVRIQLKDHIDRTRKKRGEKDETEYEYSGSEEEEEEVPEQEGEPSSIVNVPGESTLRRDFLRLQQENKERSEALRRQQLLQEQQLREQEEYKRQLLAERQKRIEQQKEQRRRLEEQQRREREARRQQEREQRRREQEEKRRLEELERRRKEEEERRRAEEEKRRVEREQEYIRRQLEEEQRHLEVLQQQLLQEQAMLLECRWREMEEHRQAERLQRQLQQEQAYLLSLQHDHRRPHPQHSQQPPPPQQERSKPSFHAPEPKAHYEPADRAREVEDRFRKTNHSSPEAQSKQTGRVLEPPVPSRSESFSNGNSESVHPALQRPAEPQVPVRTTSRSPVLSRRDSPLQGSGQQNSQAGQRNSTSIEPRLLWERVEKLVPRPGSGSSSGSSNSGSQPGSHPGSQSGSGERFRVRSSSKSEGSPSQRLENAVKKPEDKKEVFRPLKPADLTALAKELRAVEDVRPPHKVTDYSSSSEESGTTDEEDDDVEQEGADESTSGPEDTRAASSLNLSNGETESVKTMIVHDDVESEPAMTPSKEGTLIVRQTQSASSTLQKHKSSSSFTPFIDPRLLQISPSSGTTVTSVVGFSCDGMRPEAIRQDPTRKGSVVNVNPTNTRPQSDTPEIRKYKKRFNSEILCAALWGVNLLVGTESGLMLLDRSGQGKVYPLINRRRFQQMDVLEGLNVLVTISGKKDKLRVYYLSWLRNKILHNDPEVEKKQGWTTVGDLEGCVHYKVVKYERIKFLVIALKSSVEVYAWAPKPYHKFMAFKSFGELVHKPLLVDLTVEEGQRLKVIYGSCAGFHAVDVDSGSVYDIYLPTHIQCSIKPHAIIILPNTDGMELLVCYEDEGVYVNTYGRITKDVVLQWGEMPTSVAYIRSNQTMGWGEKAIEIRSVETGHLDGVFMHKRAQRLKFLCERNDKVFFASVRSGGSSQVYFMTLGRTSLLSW
Chain of Misshapen-like kinase 1 (Homo sapiens) (Q8N4C8 whole entry, looked up): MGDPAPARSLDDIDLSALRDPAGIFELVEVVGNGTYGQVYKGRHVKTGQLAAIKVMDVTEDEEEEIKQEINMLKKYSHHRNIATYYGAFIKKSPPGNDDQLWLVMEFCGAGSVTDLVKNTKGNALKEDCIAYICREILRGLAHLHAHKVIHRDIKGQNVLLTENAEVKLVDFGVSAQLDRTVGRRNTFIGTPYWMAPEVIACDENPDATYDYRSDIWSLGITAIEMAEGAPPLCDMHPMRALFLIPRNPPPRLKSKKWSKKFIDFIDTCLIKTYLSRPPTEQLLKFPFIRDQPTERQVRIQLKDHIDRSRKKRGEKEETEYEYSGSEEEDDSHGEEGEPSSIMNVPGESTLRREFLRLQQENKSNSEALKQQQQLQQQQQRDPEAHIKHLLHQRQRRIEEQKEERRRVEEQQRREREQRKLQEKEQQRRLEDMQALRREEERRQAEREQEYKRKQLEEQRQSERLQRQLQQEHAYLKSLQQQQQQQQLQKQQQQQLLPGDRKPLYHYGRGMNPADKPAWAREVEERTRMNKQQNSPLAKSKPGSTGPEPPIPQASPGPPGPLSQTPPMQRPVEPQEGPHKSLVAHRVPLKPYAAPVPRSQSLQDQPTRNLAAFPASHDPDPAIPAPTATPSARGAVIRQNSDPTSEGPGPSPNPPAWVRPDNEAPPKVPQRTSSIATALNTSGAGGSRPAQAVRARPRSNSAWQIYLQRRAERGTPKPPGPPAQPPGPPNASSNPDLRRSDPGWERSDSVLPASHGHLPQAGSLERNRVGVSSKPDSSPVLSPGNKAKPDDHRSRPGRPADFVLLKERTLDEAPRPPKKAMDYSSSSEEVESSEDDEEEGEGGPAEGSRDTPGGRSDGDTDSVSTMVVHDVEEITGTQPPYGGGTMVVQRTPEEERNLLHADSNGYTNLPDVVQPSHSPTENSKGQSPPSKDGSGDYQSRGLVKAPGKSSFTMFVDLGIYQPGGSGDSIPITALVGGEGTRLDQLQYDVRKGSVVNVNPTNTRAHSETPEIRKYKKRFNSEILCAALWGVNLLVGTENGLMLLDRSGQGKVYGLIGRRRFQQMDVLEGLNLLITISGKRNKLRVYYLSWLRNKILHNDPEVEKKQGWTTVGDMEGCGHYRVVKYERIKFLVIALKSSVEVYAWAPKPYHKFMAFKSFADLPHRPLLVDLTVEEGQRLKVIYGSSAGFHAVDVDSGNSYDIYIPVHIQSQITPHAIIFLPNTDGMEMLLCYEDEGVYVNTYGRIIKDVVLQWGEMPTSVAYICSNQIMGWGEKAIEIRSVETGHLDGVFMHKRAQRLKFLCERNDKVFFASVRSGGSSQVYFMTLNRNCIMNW
Chain of Activin receptor type-1-like (Homo sapiens) (P37023 whole entry): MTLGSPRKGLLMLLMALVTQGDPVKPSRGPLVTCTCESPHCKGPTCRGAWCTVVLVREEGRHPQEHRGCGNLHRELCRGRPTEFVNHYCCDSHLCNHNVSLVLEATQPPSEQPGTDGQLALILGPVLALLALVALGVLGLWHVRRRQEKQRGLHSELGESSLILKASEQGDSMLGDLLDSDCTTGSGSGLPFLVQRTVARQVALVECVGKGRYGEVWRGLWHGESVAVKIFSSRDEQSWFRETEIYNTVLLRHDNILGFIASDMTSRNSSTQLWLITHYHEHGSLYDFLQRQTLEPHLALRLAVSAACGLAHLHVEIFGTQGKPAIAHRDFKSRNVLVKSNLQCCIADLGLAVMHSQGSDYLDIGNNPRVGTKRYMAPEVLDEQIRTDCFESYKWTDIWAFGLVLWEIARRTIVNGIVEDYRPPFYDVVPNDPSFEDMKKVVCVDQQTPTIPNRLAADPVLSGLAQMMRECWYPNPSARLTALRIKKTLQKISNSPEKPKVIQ
Chain of Bone morphogenetic protein receptor type-1B (Homo sapiens) (O00238 whole entry): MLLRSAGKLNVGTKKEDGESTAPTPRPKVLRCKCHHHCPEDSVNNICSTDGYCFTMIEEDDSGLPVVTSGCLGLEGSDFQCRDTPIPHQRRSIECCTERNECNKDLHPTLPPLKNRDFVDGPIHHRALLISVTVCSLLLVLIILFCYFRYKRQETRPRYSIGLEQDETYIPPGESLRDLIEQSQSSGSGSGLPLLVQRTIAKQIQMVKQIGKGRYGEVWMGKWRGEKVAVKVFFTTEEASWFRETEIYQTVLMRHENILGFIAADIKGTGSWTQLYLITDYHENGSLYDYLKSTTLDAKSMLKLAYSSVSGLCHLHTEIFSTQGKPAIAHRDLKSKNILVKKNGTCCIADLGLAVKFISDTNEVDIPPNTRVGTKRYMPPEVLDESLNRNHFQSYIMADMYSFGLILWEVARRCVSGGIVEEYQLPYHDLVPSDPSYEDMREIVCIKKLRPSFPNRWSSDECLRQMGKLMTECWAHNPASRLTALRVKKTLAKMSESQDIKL

| Compound | IC50 (TGF-beta receptor type-1 [1]) [nM] | IC50 (TGF-beta receptor type-1 [2]) [nM] | IC50 (Activin receptor type-1 [3]) [nM] | IC50 (Activin receptor type-1 [4]) [nM] | other results |
| --- | --- | --- | --- | --- | --- |
| COc1cc(-c2cncc(-c3ccc(N4C[C@@H](C)N(C)[C@@H](C)C4)cc3)c2C)cc(OC)c1C(N)=O | 283 | 52 | 3 |  |  |
| COc1cc(-c2cncc(-c3ccc(N4CCNCC4)cc3)c2C)sc1C(N)=O | > 5000 | > 5000 | 751 | 3370 |  |
| COc1cc(C(N)=O)cc(-c2cncc(-c3ccc(N4CCNCC4)cc3)c2C)c1 | > 5000 | > 5000 | 102 | 588 |  |
| COc1cc(-c2cncc(-c3ccc(N4CCN(C(C)C)CC4)cc3)c2C)cc(OC)c1C(N)=O | 276 | 66 | 5 | 18 |  |
| COc1ccc(-c2cncc(-c3ccc(N4CCNCC4)cc3)c2C)cc1C(N)=O | > 5000 | > 5000 | > 1000 | 694 |  |
| COc1cc(-c2cncc(-c3ccc(N4CCNCC4)cc3)c2C)ccc1C(=O)N(C)C | > 5000 | > 5000 | > 1000 | > 5000 |  |
| CNC(=O)c1ccc(-c2cncc(-c3ccc(N4CCNCC4)cc3)c2C)cc1OC | > 5000 | > 5000 | > 1000 | > 5000 |  |
| Cc1c(-c2ccc(N3CCNCC3)cc2)cncc1-c1ccc2c(c1)CNC2=O | 4810 | > 5000 |  | 2340 | IC50 (Activin receptor type-1 [5]): 363 nM; IC50 (Activin receptor type-1 [6]): 226 nM; IC50 (Activin receptor type-1 [7]): 171 nM |
| COc1c(C(N)=O)csc1-c1cncc(-c2ccc(N3CCNCC3)cc2)c1C | > 5000 | > 5000 | > 1000 | > 5000 |  |
| COc1cc(-c2cncc(-c3ccc(N4CCNCC4)cc3)c2C)cc(Cl)c1C(N)=O | > 5000 | 2080 |  | 93 | IC50 (Activin receptor type-1 [5]): 4 nM; IC50 (Activin receptor type-1 [6]): 5 nM; IC50 (Activin receptor type-1 [7]): < 2 nM |
| COc1cc(-c2cncc(-c3ccc(N4CCN(C(C)C)CC4)cc3)c2C)cc(F)c1C(N)=O |  |  |  |  | inhibition [8]: Active; inhibition [9]: Active; inhibition [10]: Active; inhibition [11]: Active; inhibition [12]: Active; inhibition [13]: Active; inhibition [14]: Active |
| COc1cc(-c2cncc(-c3ccc(N4CCNCC4)cc3)c2C)ccc1C(N)=O |  |  |  | 55 | IC50 (Activin receptor type-1 [5]): 9 nM; IC50 (Activin receptor type-1 [6]): 9 nM; IC50 (Activin receptor type-1 [7]): 5 nM |
| Cc1c(-c2ccc(C(N)=O)cc2)cncc1-c1ccc(N2CCNCC2)cc1 | > 5000 | > 5000 | 477 | 2770 |  |
| COc1cc(-c2cncc(-c3ccc(N4CCN(C)CC4)cc3)c2C)cc(OC)c1C(N)=O | 249 | 75 | < 3 | 19 | IC50 (Activin receptor type-1 [5]): < 2 nM; IC50 (Activin receptor type-1 [6]): 4 nM; IC50 (Activin receptor type-1 [7]): < 2 nM |
| Cc1c(-c2ccc(N3CCNCC3)cc2)cncc1-c1ccc(C(N)=O)c(F)c1 | > 5000 | > 5000 | 263 | 1010 |  |
| COc1cc(-c2cncc(-c3ccc(N4CCNCC4)cc3)c2C)cc(OC)c1C(N)=O |  |  |  | 178 |  |
| COc1c(-c2cncc(-c3ccc(N4CCNCC4)cc3)c2C)csc1C(N)=O | > 5000 | > 5000 | 712 | 2810 |  |
| COCc1cc(-c2cncc(-c3ccc(N4CCNCC4)cc3)c2C)ccc1C(N)=O | > 5000 | > 5000 | 687 | 3840 |  |
| COc1cc(-c2cncc(-c3ccc(N4CCNCC4)cc3)c2C)cc(F)c1C(N)=O |  |  |  | 81 | Stability [15]: > 85%; Cmax [16]: 97 ng/mL; Papp A→B at 2 h, 5 µM (in vitro [17]): 0.3 ×10⁻⁶ cm/s; t1/2 [18]: 1.31 h; Stability [19]: > 85%; IC50 (Activin receptor type-1 [5]): 7 nM; IC50 (Activin receptor type-1 [6]): 8 nM; Papp B→A at 2 h, 5 µM (in vitro [20]): 10.7 ×10⁻⁶ cm/s; IC50 (Activin receptor type-1 [7]): 4 nM; AUC [21]: 296 ng·h/mL |
| COc1cc(-c2cncc(-c3ccc(N4C[C@@H](C)N(C)[C@@H](C)C4)cc3)c2C)cc(F)c1C(N)=O | > 5000 | 2910 | 10 | 100 | Stability [15]: Stable; inhibition [8]: Active; inhibition [9]: Active; inhibition [10]: Active; inhibition [11]: Active; inhibition [12]: Active; IC50 [22]: 19000 nM; Papp A→B at 2 h, 5 µM (in vitro [17]): 4.3 ×10⁻⁶ cm/s; Stability [19]: Stable; Papp B→A at 2 h, 5 µM (in vitro [20]): 14.5 ×10⁻⁶ cm/s; inhibition [13]: Active; inhibition [14]: Active |

— ChEMBL document CHEMBL4402613, “Targeting ALK2: An Open Science Approach to Developing Therapeutics for the Treatment of Diffuse Intrinsic Pontine Glioma” (J Med Chem, 2020)
